Experimental data reported in patent publication US20230292755A1, “USE OF A GLYCINE BETAINE DERIVATIVE AS A PEDICULICIDAL AGENT” (priority 2020, published 2023).

Tested on: lice (Pediculus humanus capitis)
Assay: Efficacy test: aqueous solutions sprayed into boxes of lice, percentage of mortality evaluated (ECHA guidance)
Type: in vivo
Settings: sprayed aqueous solution at 3% by weight of dry matter; for Mortality rate (%): mean of 4 boxes of 25 lice
Method: The surfactant compositions prepared as described in examples 1 and 2 above were tested following the recommendations of the ECHA relating to the evaluation of the efficacy of biocidal products (Guidance on the Biocidal Products Regulation Volume II Efficacy—Assessment and Evaluation (Parts B+C), Version 3.0 April 2018).
These compositions were thus each sprayed, in the form of aqueous solutions at 3% by weight of dry matter, into 4 boxes each including 25 lice (Pediculus humanus capitis), then the percentage of mortality was evaluated after 5, 10 and 15 min. The mean of the results obtained in the 4 boxes was calculated.
The test presented in example 3 was reproduced using one and the same concentration of different cationic surfactants instead of the glycine betaine derivatives according to the invention.

Compound	Mortality rate (%) (after 5 min)	Mortality rate (%) (after 10 min)	Mortality rate (%) (after 15 min)	time required to eliminate 100% of the lice
CCCCCCCCCCCCCCCC[N+](C)(C)C.[Cl-] [Cetrimonium chloride]	79%	94%	100%	–
CCCCCCCCCCCC[N+](C)(C)C.[Cl-] [Dodecyltrimethylammonium chloride]	49%	78%	91%	30 min
Benzalkonium chloride	70%	80%	82%	60 min
